Key:
[1] = test system: IL-17A-induced G-CSF production in human normal keratinocyte (NHK); experiment: NHK assay: IL-17A-induced G-CSF production in normal human keratinocytes; type: cell-based; details: Homo sapiens, Keratinocyte, 24 h, IL-17A 5 ng/mL, G-CSF by HTRF, average if tested more than once
Description: IL-17A acts directly on keratinocytes through binding to dimeric receptor IL-17RA/RC and drives the production of a number of inflammatory mediators known to be elevated in psoriasis lesional tissue. IL-17A small molecule inhibitors that block the IL-17A to interact with IL-17R would inhibit the IL-17A signaling in its targeted cells such as keratinocytes. The compound functional activity is evaluated for its impact on IL-17A-induced G-CSF production in human normal keratinocyte (NHK).
Adult normal human keratinocytes are cultured in keratinocyte growth medium (Lonza) in a flask till reaching ˜90% confluence, then cells are transferred to a 384-well plate at density of 3000-4000 cell/well. Recombinant human IL-17A (Gibco PHC9174) is pre-incubated with titrated compound or DMSO for 1 h at rt then added to the cell culture plate. The final concentration of IL-17A is 5 ng/mL and DMSO is 0.2%, in the culture containing 5% FBS. Cells are cultured/treated for 24 h at 37° C. Supernatants are collected and G-CSF production is measured through HTRF technology using Human G-CSF Kit (CisBio). G-CSF concentration was extrapolated from the standard curve and IC50 is determined using GraphPad Prism. Cell viability is also evaluated using CellTiter-Glo kit (Promega) and effect of compound on cell viability is compared to DMSO control.

[2] = target: IL-17A(FLAG-Tagged): IL-17RA(His-Tagged) binding (Homo sapiens, UniProt Q16552, K93Q); experiment: IL-17A(FLAG-tagged):IL-17RA(His-tagged) binding disruption Eu-HTRF assay, Protocol 2; details: FLAG-IL-17A 1 nM; average if tested more than once
From the text: IL-17A(FLAG-Tagged): IL-17RA(His-Tagged) Binding Disruption Eu-HTRF Assay
An antibody directed against the FLAG tag of IL-17A (SEQ ID NO: 1) is labeled with the HTRF donor chromophore (Europium-cryptate). IL-17A is present as a dimer that is “locked into” this quaternary structure due to the formation of loop-spanning […] disulfide bridges. The construct of IL-17RA used in the assay excludes the […] portion of the receptor and is fused to a C-terminal 10×His tag (SEQ ID NO:2). An antibody directed against the His tag of the IL-17RA chimera is labeled with the HTRF acceptor chromophore (“D2”). The fluorescence-resonance energy transfer (FRET) depends on the vicinity of the donor chromophore to the acceptor, and interruption of the binding between the IL-17A and IL-17RA causes the reduction/loss of FRET. Therefore, this assay allows to evaluate the compound effect on the binding IL-17A and IL-17RA by monitoring the fluorescence intensity of donor vs acceptor. The assay was run using either Protocol 1 or Protocol 2 as described below.
Protocol 2. 40 nl of 2-fold serial diluted compound solution for total 22 dilution points is added into each well of a 1536-well, white, low-volume, non-binding plate (Greiner #782904), then 2 μl of FLAG tagged IL-17A at 2×final concentration (1 nM) in solution of PBS+0.01% Triton-X100 is added to each well. The assay plate is briefly centrifuged then incubated for 1 h at rt. A mixed solution is prepared containing 2×5 nM 10HIS×IL-17RA, 2×2.5 nM Eu-anti-FLAG (CISBIO), 2×5 nM D2-anti-HIS (CISBIO) in PBS+0.01% Triton-X100+200 mM Potassium Fluoride (Sigma 60238) and 2 μl of mix is added to each well of the assay plate. The plate is briefly centrifuged then incubated for 2 h at rt. The HTRF intensities at the wavelength of donor (615 nm) and acceptor (665 nm) are measured using BMG Pherastar. The ratio between intensities at two wavelengths is calculated and plotted against the compound concentration and the data is fitted to a one-site competition model to yield IC50 of the compound.

Chain of UniProt Q16552 (Q16552 with tags, fused parts or gaps K93Q): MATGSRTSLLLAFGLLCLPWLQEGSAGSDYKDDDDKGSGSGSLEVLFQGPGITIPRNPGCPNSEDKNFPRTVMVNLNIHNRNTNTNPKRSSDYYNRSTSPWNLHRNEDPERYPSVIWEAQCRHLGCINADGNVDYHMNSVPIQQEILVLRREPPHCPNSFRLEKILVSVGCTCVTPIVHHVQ

IC50 [2]	SMILES	IC50 [1]
< 0.05 µM	COc1nonc1C(=O)N[C@@H](CCC(C)(C)C(F)(F)F)c1cn2ncc(CN3C[C@H]4[C@@H](CNC3=O)C4(F)F)cc2n1 (relative stereo) [Example 117, N—((S)-1-(7-(((1R*,7S*)-8,8-Difluoro-4-oxo-3,5-diazabicyclo[5.1.0]octan-3-yl)methyl)imidazo[1,2-b]pyridazin-2-yl)-5,5,5-trifluoro-4,4-dimethylpentyl)-4-methoxy-1,2,5-oxadiazole-3-carboxamide]	< 0.05 µM
< 0.05 µM	CC(C)(CC[C@H](NC(=O)c1nonc1C1CC1)c1cn2ncc(CN3C[C@@H]4[C@H](CNC3=O)C4(F)F)cc2n1)C(F)(F)F (relative stereo) [Example 118, 4-Cyclopropyl-N—((S)-1-(7-(((1S*,7R*)-8,8-difluoro-4-oxo-3,5-diazabicyclo[5.1.0]octan-3-yl)methyl)imidazo[1,2-b]pyridazin-2-yl)-5,5,5-trifluoro-4,4-dimethylpentyl)-1,2,5-oxadiazole-3-carboxamide]	> 0.1 µM
< 0.05 µM	CC(C)(CC[C@H](NC(=O)c1nonc1C1CC1)c1cn2ncc(CN3C[C@H]4[C@@H](CNC3=O)C4(F)F)cc2n1)C(F)(F)F (relative stereo) [Example 119, 4-Cyclopropyl-N—((S)-1-(7-(((1R*,7S*)-8,8-difluoro-4-oxo-3,5-diazabicyclo[5.1.0]octan-3-yl)methyl)imidazo[1,2-b]pyridazin-2-yl)-5,5,5-trifluoro-4,4-dimethylpentyl)-1,2,5-oxadiazole-3-carboxamide]	< 0.05 µM
> 0.1 µM	Cc1nonc1C(=O)N[C@@H](CCC(C)(C)C(F)(F)F)c1cn2ncc(CN3C[C@@H]4[C@H](CNC3=O)C4(F)F)cc2n1 (relative stereo) [Example 120, N—((S)-1-(7-(((1S*,7R*)-8,8-Difluoro-4-oxo-3,5-diazabicyclo[5.1.0]octan-3-yl)methyl)imidazo[1,2-b]pyridazin-2-yl)-5,5,5-trifluoro-4,4-dimethylpentyl)-4-methyl-1,2,5-oxadiazole-3-carboxamide]	> 0.1 µM
< 0.05 µM	Cc1nonc1C(=O)N[C@@H](CCC(C)(C)C(F)(F)F)c1cn2ncc(CN3C[C@H]4[C@@H](CNC3=O)C4(F)F)cc2n1 (relative stereo) [Example 121, N—((S)-1-(7-(((1R*,7S*)-8,8-Difluoro-4-oxo-3,5-diazabicyclo[5.1.0]octan-3-yl)methyl)imidazo[1,2-b]pyridazin-2-yl)-5,5,5-trifluoro-4,4-dimethylpentyl)-4-methyl-1,2,5-oxadiazole-3-carboxamide]	< 0.05 µM
< 0.05 µM	COC[C@H](c1cnn2cc([C@H](CCC(C)(C)C(C)(F)F)NC(=O)c3nonc3C)nc2c1)N1CC(F)(F)CNC1=O (relative stereo) [Example 133, N—((S*)-1-(7-((S)-1-(5,5-Difluoro-2-oxotetrahydropyrimidin-1(2H)-yl)-2-methoxyethyl)imidazo[1,2-b]pyridazin-2-yl)-5,5-difluoro-4,4-dimethylhexyl)-4-methyl-1,2,5-oxadiazole-3-carboxamide]	< 0.05 µM
< 0.05 µM	[2H]C1([2H])NC(=O)N([C@H](COC2CC2)c2cnn3cc([C@@H](NC(=O)c4nonc4C)C4CCC(F)(F)CC4)nc3c2)C([2H])([2H])C1(F)F (single isomer, unassigned) [Example 40]	< 0.05 µM
< 0.05 µM	COC[C@H](c1cnn2cc(C(CCC(C)(C)C(F)(F)F)NC(=O)c3nonc3C)nc2c1)N1CC(F)(F)CNC1=O (single isomer, unassigned) [Example 45, N—((S*)-1-(7-((S)-1-(5,5-Difluoro-2-oxotetrahydropyrimidin-1(2H)-yl)-2-methoxyethyl)imidazo [1,2-b]pyridazin-2-yl)-5,5,5-trifluoro-4,4-dimethylpentyl)-4-methyl-1,2,5-oxadiazole-3-carboxamide]	< 0.05 µM
